Reference: ChEMBL document CHEMBL1128104, “A bis-[N-3-(1-hydroxy-1-methyl-ethyl)-benzyl)-cyclic urea as a HIV protease inhibitor” (Bioorg Med Chem Lett, 1995)

How the values were obtained:
[1] = tmax upon peroral administration of 10.0 mg/Kg dose in dog; type: ADME, organism-based, Canis lupus familiaris; details: in vivo, po
[2] = Tested for t1/2 upon intravenous administration of 5.0 mg/Kg dose in rat; type: ADME, organism-based; details: in vivo
[3] = Cmax in plasma was determined upon peroral administration of 10.0 mg/Kg dose in rat; type: ADME, organism-based; design: dose 10 mg/Kg, route oral; details: po
[4] = Bioavailability in dog (dose 10.0 mg/kg p.o.); type: ADME, organism-based, Canis lupus familiaris; details: in vivo, po
[5] = Tested for volume of distribution at steady state upon intravenous administration of 5.0 mg/Kg dose in rat; type: ADME, organism-based; details: in vivo, read-out: Vss
[6] = Tested for systemic clearance upon intravenous administration of 5.0 mg/Kg dose in rat; type: ADME, organism-based; details: in vivo
[7] = tested on: Human immunodeficiency virus; assay: Ability to inhibit p24 mutant variant V82F/[…] was determined; type: functional; details: Human immunodeficiency virus 1
[8] = Cmax in plasma was determined upon peroral administration of 10.0 mg/Kg dose in dog; type: ADME, organism-based, Canis lupus familiaris; design: dose 10 mg/Kg, route oral; details: po
[9] = tested on: Lymphocytoid cell line; assay: Tested for the ability to inhibit viral replication (HIV-1 RNA) in human lymphocytoid cell lines MT-2 or MT-4 using the RF strain of HIV-1; type: functional
[10] = Tested for t1/2 upon peroral administration of 10.0 mg/Kg dose in dog; type: ADME, organism-based, Canis lupus familiaris; details: in vivo, po
[11] = tmax upon peroral administration of 10.0 mg/Kg dose in rat; type: ADME, organism-based; details: in vivo, po
[12] = tested on: Human immunodeficiency virus; assay: Ability to inhibit p24 mutant variant V82F was determined; type: functional; details: Human immunodeficiency virus 1
[13] = tested on: Lymphocytoid cell line; assay: Tested for cytotoxicity (concentration required to reduce 50% of the viable cell population) in presence of metabolizable tetrazolium dye in human lymphocytoid cell lines MT-2 or MT-4 using the RF strain of HIV-1; type: functional; details: read-out: TC50 (the source's name)
[14] = tested on: Human immunodeficiency virus; assay: Ability to inhibit p24 mutant variant […] was determined; type: functional; details: Human immunodeficiency virus 1
[15] = tested on: Human immunodeficiency virus; assay: Ability to inhibit p24 mutant variant HxB2 wild type was determined; type: functional; details: Human immunodeficiency virus 1
[16] = Tested for t1/2 upon peroral administration of 10.0 mg/Kg dose in rat; type: ADME, organism-based; details: in vivo, po
[17] = Tested for systemic clearance upon intravenous administration of 5.0 mg/Kg dose in dog; type: ADME, organism-based, Canis lupus familiaris; details: in vivo
[18] = molecular target: Human immunodeficiency virus type 1 protease (Human immunodeficiency virus 1, UniProt Q72874); assay: Tested for inhibitory activity against HIV protease
[19] = Bioavailability upon peroral administration of 10.0 mg/Kg dose in rat; type: ADME, organism-based; details: in vivo, po, read-out: Bioavailabiility
[20] = Tested for volume of distribution at steady state upon intravenous administration of 5.0 mg/Kg dose in dog; type: ADME, organism-based, Canis lupus familiaris; details: in vivo, read-out: Vss
[21] = Tested for t1/2 upon intravenous administration of 5.0 mg/Kg dose in dog; type: ADME, organism-based, Canis lupus familiaris; details: in vivo
[22] = tested on: Human immunodeficiency virus 1; assay: Tested for the ability to block cleavage of HIV-1 gag polyprotein using [35S]methionine-labeled ligand; type: functional, organism-based

SMILES | Tmax [1] | half-life [2] | Cmax [3] | bioavailability [4] | Vd [5] | clearance [6] | IC90 [7] | Cmax [8] | IC90 [9] | half-life [10] | IC90 [12] | CC50 [13] | IC90 [14] | IC90 [15] | half-life [16] | clearance [17] | Ki [18] | Vd [20] | half-life [21] | IC50 [22] | other results
O=C1N(Cc2ccc(CO)cc2)[C@H](Cc2ccccc2)[C@H](O)[C@@H](O)[C@@H](Cc2ccccc2)N1Cc1ccc(CO)cc1 [DMP-323] | 0.5 h | 0.95 h | 450 ng/mL | 38.4% | 6.36 L/kg | 119 mL/min/kg | 22000 nM | 1480 ng/mL | 176 nM | 1.08 h | 675 nM | 67500 nM | 989 nM | 95.6 nM | 1.5 h | 24.7 mL/min/kg | 0.31 nM | 2.28 L/kg | 1.8 h | 35.7 nM | Tmax [11]: 0.25 h; bioavailability [19]: 27.1%
CC(C)(O)c1cccc(CN2C(=O)N(Cc3cccc(C(C)(C)O)c3)[C@H](Cc3ccccc3)[C@H](O)[C@@H](O)[C@H]2Cc2ccccc2)c1 | 0.42 h | 1.03 h | 630 ng/mL | < 4% | 3.04 L/kg | 31.8 mL/min/kg | 5780 nM | 240 ng/mL | 33.7 nM | 0.65 h | 84.3 nM | 33400 nM | 72.2 nM | 22.2 nM | 1.5 h | 15.5 mL/min/kg | 0.067 nM | 1.65 L/kg | 1.2 h | 15 nM | –
CC(C)(O)c1ccc(CN2C(=O)N(Cc3ccc(C(C)(C)O)cc3)[C@H](Cc3ccccc3)[C@H](O)[C@@H](O)[C@H]2Cc2ccccc2)cc1 | – | – | – | – | – | – | – | – | 8040 nM | – | – | 39300 nM | – | – | – | – | 2.2 nM | – | – | – | –
O=C1N(Cc2cccc(CO)c2)[C@H](Cc2ccccc2)[C@H](O)[C@@H](O)[C@@H](Cc2ccccc2)N1Cc1cccc(CO)c1 | – | 1.1 h | 470 ng/mL | – | 9.8 L/kg | 103 mL/min/kg | – | – | 38.8 nM | – | – | 54700 nM | – | – | – | – | 0.4 nM | – | – | 7.9 nM | –
